# From patent US20250034186A1, “ANTIVIRAL COMPOUNDS” (priority 2020, published 2025)
# Read-outs that look alike come from different tables or passages of the source.
# Key:
# RSV strain A2 = assay: RSV HEp-2 EC50, infectious cytopathic cell protection assay; assay type: cell-based; conditions: for EC50: human respiratory syncytial virus, 96 h, RSV A2 in HEp-2 cells, 4 days, Cell TiterGlo
# Description: Antiviral activity against RSV is determined using an infectious cytopathic cell protection assay in HEp-2 cells. In this assay, compounds inhibiting viral infection and/or replication produce a cytoprotective effect against the virus-induced cell killing that can be quantified using a cell viability reagent. The techniques used here are novel adaptations of methods described in published literature (Chapman et al., Antimicrob Agents Chemother. 2007, 51(9):3346-53.).
# HEp-2 cells are obtained from ATCC (Manassas, VI) and maintained in MEM media supplemented with 10% fetal bovine serum and penicillin/streptomycin. Cells are passaged twice a week and kept at subconfluent stage. Commercial stock of RSV strain A2 (Advanced Biotechnologies, Columbia, MD) is titered before compound testing to determine the appropriate dilution of the virus stock that generates desirable cytopathic effect in HEp-2 cells.
# For antiviral tests, HEp-2 cells are grown in large cell culture flasks to near confluency but not fully so. The compounds to be tested are prediluted in DMSO in 384-well compound dilution plates, either in an 8 or 40 sample per plate standardized dose response format. 3-fold serial dilution increments of each test compound are prepared in the plates and test samples are transferred via acoustic transfer apparatus (Echo, Labcyte) at 100 nL per well into cell culture assay 384-well plates. Each compound dilution is transferred in single or quadruplicate samples into dry assay plates, which are stored until assay is ready to go. The positive and negative controls are laid out in opposite on ends of the plate in vertical blocks (1 column).
# Subsequently, an infectious mixture is prepared using an appropriate dilution of virus stock previously determined by titration with cells at a density of 50,000/mL and 20 μL/well is added to test plates w/compounds via automation (uFlow, Biotek). Each plate includes negative and positive controls (16 replicates each) to create 0% and 100% virus inhibition standards, respectively. Following the infection with RSV, testing plates are incubated for 4 days in a 37° C. cell culture incubator. After the incubation, a cell viability reagent, Cell TiterGlo (Promega, Madison, WI) is added to the assay plates, which are incubated briefly, and a luminescent readout is measured (Envision, Perkin Elmer) in all the assay plates. The RSV-induced cytopathic effect, percentage inhibition, is determined from the levels of remaining cell viability. […] Various potent anti-RSV tool compounds are used as positive controls for antiviral activity.
# HRV16 = HRV16 HeLa EC50; assay type: cell-based, human rhinovirus; conditions: for EC50: Human rhinovirus sp., HRV16, H1-HeLa cells, 96 h, 33° C.
# Description: H1-HeLa cells, cultured in complete DMEM medium containing 10% heat-inactivated FBS and 1% Penicillin/Streptomycin, were seeded in 96 well plates at 3000 cells/well one day prior to compound dosing and infection. The antiviral activity of each compound was measured in triplicate. Compounds were added directly to the cell cultures in serial 3-fold dilutions using the HP300 digital dispenser (Hewlett Packard, Palo Alto, CA) immediately prior to infection. The plates were transferred to BSL-2 containment and the appropriate dilution of virus stock, previously determined by titration and prepared in cell culture media, was added to test plates containing cells and serially diluted compounds. Each plate included 6 wells of infected untreated cells and 6 wells of uninfected cells that served as 0% and 100% virus inhibition control, respectively. Following the infection, test plates were incubated for 96 h in a tissue culture incubator set to 33° C./5% CO2. Following incubation, the H1-HeLa cells were removed from incubation and allowed to equilibrate to 25° C. Cell viability was determined by removing 100 μL of culture medium and adding 100 μL of Cell-Titer Glo viability reagent. The mixtures were incubated on a shaker for 10 minutes at 25° C., and the luminescence signal was quantified on an Envision luminescence plate reader.
# MT-4 cytotoxicity assay = assay type: cell-based; conditions: human, MT-4 cells (uninfected), 4-5 days, read-out: CC50 MT4
# Description: Cytotoxicity of the compound of Formula I and compounds 1, 2, and 6 was determined in uninfected cells using the cell viability reagent in a similar fashion as described before for other cell types (Cihlar et al., Antimicrob Agents Chemother. 2008, 52(2):655-65.). HEp-2 (1.5×10^3 cells/well) and MT-4 (2×10^3 cells/well) cells were plated in 384-well plates and incubated with the appropriate medium containing 3-fold serially diluted compound ranging from 15 nM to 100,000 nM. Cells were cultured for 4-5 days at 37° C. Following the incubation, the cells were allowed to equilibrate to 25° C., and cell viability was determined by adding Cell-Titer Glo viability reagent. The mixture was incubated for 10 min, and the luminescence signal was quantified using an Envision plate reader. Untreated cell and cells treated at 2 μM puromycin (Sigma, St. Louis, MO) serve as 100% and 0% cell viability control, respectively.
# Huh-7 cytotoxicity assay = assay type: cell-based; conditions: human, Huh7 cells
# Description: Compounds were tested in a high-throughput 384-well assay format for cytotoxicity in Huh7 cells (Hepatocarcinoma cell line). Cells were diluted in media (DMEM (15-018-CM), 10% FBS, 1% NEAA, 1% PSG) to 16.6K cells/mL and plated at 90 uL/well into 384 well poly-D-lysine coated assay plates and placed in an incubator at 37° C. and 5% CO2. Compounds were serially diluted (1:3) in 100% DMSO in 384-well plates in quadruplicate. DMSO and 2 mM Puromycin were included as negative and positive controls respectively. 24 hours after cell plating, a 384 channel pipettor was used to transfer 0.4 uL from the compound plate to the assay plate. Assay plates were returned to the incubator. After 5 days, assay plates were washed with 80 uL/well of PBS before addition of 20 μL of Cell Titer Glo. Assay plates were read on the Envision plate reader. […] CC50 values were calculated in Accord (on-line tool) using a one-site dose-response model to generate sigmoidal curve fits.
# [1] = Thermodynamic solubility assay; assay type: physicochemical; conditions: thermodynamic from solid, room temperature, four days
# Description: Excess solid compound was used to saturate aqueous samples of the compounds. The tubes were placed on an agitator set at 1000 rpm and remained under constant agitation for four days. Following agitation, it was confirmed that excess solids were present in all tubes. The tubes were centrifuged at 10,000 rpm for 5 minutes to remove excess solids and the supernatant was transferred to a new vial. Concentration analysis was determined by UPLC and quantified against internal standards.
# [2] = pH 7, aqueous buffer, phosphate buffered saline solution, read-out: pH 7 Solubility
# [3] = simulated gastric fluid, 10 mM hydrochloric acid (pH 2.0), read-out: pH 2 Solubility
SMILES,EC50 (RSV strain A2) [nM],EC50 (HRV16) [nM],CC50 (MT-4 cytotoxicity assay) [µM],CC50 at 5 days (Huh-7 cytotoxicity assay) [µM],"solubility thermodynamic at 4 days [1, 2] [µg/mL]","solubility thermodynamic at 4 days [1, 3] [µg/mL]","times more potent than compound 7, RSV HEp-2 (RSV strain A2; EC50 ratio vs compound 7) [times]","times more potent than compound 7, HRV16 HeLa (HRV16; EC50 ratio vs compound 7) [times]","times more potent than the compound of Formula Ib, RSV HEp-2 (RSV strain A2; EC50 ratio vs Formula Ib) [times]","more potent relative to compound 1, RSV Hep-2 (RSV strain A2; EC50 ratio vs compound 1)","times more potent relative to compound 3, RSV Hep-2 (RSV strain A2; EC50 ratio vs compound 3)","times more potent relative to compound 4, RSV Hep-2 (RSV strain A2; EC50 ratio vs compound 4)","times more potent relative to compound 5, RSV Hep-2 (RSV strain A2; EC50 ratio vs compound 5)","times more potent than the compound of Formula Ib, HRV16 HeLa (HRV16; EC50 ratio vs Formula Ib) [times]","times more potent relative to compound 1, HRV16 HeLa (HRV16; EC50 ratio vs compound 1)","times more potent relative to compound 3, HRV16 HeLa (HRV16; EC50 ratio vs compound 3)","times more potent relative to compound 4, HRV16 Hela (HRV16; EC50 ratio vs compound 4)","times more potent relative to compound 5, HRV16 HeLa (HRV16; EC50 ratio vs compound 5)"
"CCOC(=O)[C@H](C)NP(=O)(OC[C@@]1(C#N)O[C@@H](c2ccc3c(N)ncnn23)[C@H](O)[C@@H]1O)Oc1ccccc1 (stereo partly shown) [Compound 1, reference compound]",352,959,52.4,> 44.4,–,–,–,–,–,–,–,–,–,–,–,–,–,–
"CCC(CC)COC(=O)[C@H](C)NP(=O)(OC[C@@]1(C#N)O[C@@H](c2ccc3c(N)ncnn23)[C@H](O)[C@@H]1O)Oc1ccccc1 (stereo partly shown) [Compound 2, reference compound]",69,164,> 43.7,> 44.4,18,3720,–,–,–,–,–,–,–,–,–,–,–,–
"CCC(CC)COC(=O)[C@H](C)N[P@](=O)(OC[C@@]1(C#N)O[C@@H](c2ccc3c(N)ncnn23)[C@H](O)[C@@H]1O)Oc1ccccc1 [Compound 6, 2-ethylbutyl ((S)-(((2R,3S,4R,5S)-5-(4-aminopyrrolo[2,1-f][1,2,4]triazin-7-yl)-2-cyano-3,4-dihydroxytetrahydrofuran-2-yl)methoxy)(phenoxy)phosphoryl)alaninate]",26,135,38.8,17.2,16,3790,4.8,1.4,–,–,–,–,–,–,–,–,–,–
"C[C@H](N[P@](=O)(OC[C@@]1(C#N)O[C@@H](c2ccc3c(N)ncnn23)[C@H](O)[C@@H]1O)Oc1ccccc1)C(=O)OC1CCCCC1 [Formula I, cyclohexyl ((S)-(((2R,3S,4R,5S)-5-(4-aminopyrrolo[2,1-f][1,2,4]triazin-7-yl)-2-cyano-3,4-dihydroxytetrahydrofuran-2-yl)methoxy)(phenoxy)phosphoryl)-L-alaninate]",88,227,56.2,> 88.9,131,4120,–,–,31.1,about 4.0,about 5 times,about 3.9 times,about 19.8 times,2.9,about 4.2 times,about 6.2 times,about 4.3 times,about 13.8 times
